# PubChem BioAssay AID330 (DTP/NCI, 2004)
# “And” between values parts separate entries of the source, which are not always exact repeats. Equal entries are not always repeated. Toxic doses and inconclusive results are not listed.
# System: P388 leukemia ip, CD2F1 mice, survival T/C
# Test: NCI In Vivo Anticancer Drug Screen. Data for tumor model P388 Leukemia (intraperitoneal) in CD2F1 (CDF1) mice
# Details: endpoint: median survival time, higher = longer survival
# Summary of the method: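 Mice carrying the transplanted tumor received test compound or vehicle. Survival was recorded in each group, and the value is the treated-group measurement divided by that of the vehicle-treated control group.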
# [1] = dose: 3.12 mg/kg/injection, schedule: Q01DX009 (ip), vehicle: Klucel (hydroxypropylcellulose) (HPC)
# [2] = dose: 3.13 mg/kg/injection, schedule: Q01DX009 (ip), vehicle: Klucel (hydroxypropylcellulose) (HPC)
# [3] = dose: 6.25 mg/kg/injection, schedule: Q01DX009 (ip), vehicle: Klucel (hydroxypropylcellulose) (HPC)
# [4] = dose: 12.5 mg/kg/injection, schedule: Q01DX009 (ip), vehicle: Klucel (hydroxypropylcellulose) (HPC)
# [5] = dose: 25.0 mg/kg/injection, schedule: Q01DX009 (ip), vehicle: Klucel (hydroxypropylcellulose) (HPC)
# [6] = dose: 50.0 mg/kg/injection, schedule: Q01DX009 (ip), vehicle: saline with Tween-80
# [7] = dose: 100.0 mg/kg/injection, schedule: Q01DX009 (ip), vehicle: saline with Tween-80
# [8] = dose: 200.0 mg/kg/injection, schedule: Q01DX009 (ip), vehicle: saline with Tween-80
# [9] = dose: 60.0 mg/kg/injection, schedule: Q01DX005 (ip), vehicle: saline with Tween-80
# [10] = dose: 400.0 mg/kg/injection, schedule: Q01DX009 (ip), vehicle: saline with Tween-80
# [11] = dose: 25.0 mg/kg/injection, schedule: Q01DX005 (ip), vehicle: saline
# [12] = dose: 50.0 mg/kg/injection, schedule: Q01DX005 (ip), vehicle: saline
# [13] = dose: 100.0 mg/kg/injection, schedule: Q01DX005 (ip), vehicle: saline
# [14] = dose: 200.0 mg/kg/injection, schedule: Q01DX005 (ip), vehicle: saline
smiles,measurement,setting,value
COc1ccc(C(N)=O)cc1N=NN(C)C,T/C,[1],103 % of control
same,T/C,[2],103 % of control
same,T/C,[3],98 % of control
same,T/C,[4],107 % of control and 114 % of control
same,T/C,[5],121 % of control and 123 % of control
same,T/C,"dose: 50.0 mg/kg/injection, schedule: Q01DX009 (ip), vehicle: Klucel (hydroxypropylcellulose) (HPC)",118 % of control and 94 % of control
[Cl][Pt+2][Cl].[NH-]c1cccc(F)c1.[NH-]c1cccc(F)c1,T/C,[1],158 % of control
same,T/C,[3],155 % of control
CCCCCN(CCCCC)CCCNc1c2c(nc3ccc(OC)cc13)CCCC2,T/C,"dose: 3.12 mg/kg/injection, schedule: Q01DX005 (ip), vehicle: saline",94 % of control
same,T/C,"dose: 6.25 mg/kg/injection, schedule: Q01DX005 (ip), vehicle: saline",103 % of control
same,T/C,"dose: 12.5 mg/kg/injection, schedule: Q01DX005 (ip), vehicle: saline",99 % of control
CC(C)(Oc1ccc(C(=O)c2ccc(Cl)c(Cl)c2)cc1)C(=O)O,T/C,[6],94 % of control
same,T/C,[7],102 % of control
same,T/C,[8],107 % of control
O=S(=O)(Cc1ccc(Cl)cc1)Cc1ccc(Cl)cc1,T/C,"dose: 100.0 mg/kg/injection, schedule: Q04DX003 (ip), vehicle: saline sonified",100 % of control
same,T/C,"dose: 200.0 mg/kg/injection, schedule: Q04DX003 (ip), vehicle: saline sonified",100 % of control
same,T/C,"dose: 400.0 mg/kg/injection, schedule: Q04DX003 (ip), vehicle: saline sonified",90 % of control
O=C(Nc1cccc(Cl)c1)Nn1cnnc1,T/C,"dose: 50.0 mg/kg/injection, schedule: Q01DX009 (ip), vehicle: saline",101 % of control
same,T/C,"dose: 100.0 mg/kg/injection, schedule: Q01DX009 (ip), vehicle: saline",97 % of control
same,T/C,"dose: 200.0 mg/kg/injection, schedule: Q01DX009 (ip), vehicle: saline",91 % of control
C=CCCCCCCCCCSC(=N)N,T/C,[3],98 % of control
same,T/C,[4],93 % of control
same,T/C,[5],99 % of control
Oc1ccc(O)c(/C=N/NC(=S)NC2CC3CC2C2C=CCC32)c1 (configuration not stated),T/C,"dose: 12.5 mg/kg/injection, schedule: Q01DX009 (ip), vehicle: olive oil, sesame oil, peanut oil",90 % of control
same,T/C,"dose: 25.0 mg/kg/injection, schedule: Q01DX009 (ip), vehicle: olive oil, sesame oil, peanut oil",102 % of control
same,T/C,"dose: 50.0 mg/kg/injection, schedule: Q01DX009 (ip), vehicle: olive oil, sesame oil, peanut oil",102 % of control
same,T/C,"dose: 100.0 mg/kg/injection, schedule: Q01DX009 (ip), vehicle: olive oil, sesame oil, peanut oil",98 % of control
same,T/C,"dose: 200.0 mg/kg/injection, schedule: Q01DX009 (ip), vehicle: olive oil, sesame oil, peanut oil",105 % of control
CCC(c1ccc(OC)cc1)C(CC)c1ccc(O)c(CN(C)C)c1 (configuration not stated),T/C,[9],94 % of control
same,T/C,"dose: 120.0 mg/kg/injection, schedule: Q01DX005 (ip), vehicle: saline with Tween-80",92 % of control
same,T/C,"dose: 240.0 mg/kg/injection, schedule: Q01DX005 (ip), vehicle: saline with Tween-80",92 % of control
CC(/C=C/c1ccccc1)=N\NC(=O)c1ccccc1,T/C,"dose: 6.25 mg/kg/injection, schedule: Q01DX005 (ip), vehicle: Klucel (hydroxypropylcellulose) (HPC)",108 % of control
same,T/C,"dose: 12.5 mg/kg/injection, schedule: Q01DX005 (ip), vehicle: Klucel (hydroxypropylcellulose) (HPC)",97 % of control
same,T/C,"dose: 25.0 mg/kg/injection, schedule: Q01DX005 (ip), vehicle: Klucel (hydroxypropylcellulose) (HPC)",100 % of control and 108 % of control and 96 % of control
same,T/C,"dose: 100.0 mg/kg/injection, schedule: Q01DX005 (ip), vehicle: Klucel (hydroxypropylcellulose) (HPC)",112 % of control
O=S(=O)(O)c1cc2cc(S(=O)(=O)O)c3nnc4cc(S(=O)(=O)O)cc5cc(S(=O)(=O)O)c(nnc6cc(S(=O)(=O)O)cc7cc(S(=O)(=O)O)c(nnc(c1)c2c3O)c(O)c76)c(O)c54,T/C,"dose: 30.0 mg/kg/injection, schedule: Q01DX005 (ip), vehicle: saline with Tween-80",93 % of control
same,T/C,[9],106 % of control and 91 % of control
CC(=O)OCCN1c2ccccc2Sc2cnccc21,T/C,[7],100 % of control
same,T/C,[8],100 % of control
same,T/C,[10],95 % of control
C[Si](C)(C)N=S=N[Si](C)(C)C,T/C,"dose: 50.0 mg/kg/injection, schedule: Q01DX005 (ip), vehicle: saline with Tween-80",101 % of control
same,T/C,"dose: 100.0 mg/kg/injection, schedule: Q01DX005 (ip), vehicle: saline with Tween-80",108 % of control
CC(=O)OC(C)C(=O)NCC(C)O (configuration not stated),T/C,[11],100 % of control
same,T/C,[12],103 % of control
same,T/C,[13],98 % of control
same,T/C,[14],100 % of control
O=S(=O)(O)CCCBr,T/C,[7],100 % of control
same,T/C,[8],104 % of control
same,T/C,[10],95 % of control
CN1CCCC1=NCCN=C1CCCN1C,T/C,[12],117 % of control
same,T/C,[13],99 % of control
same,T/C,[14],98 % of control
CC1C=NNC1=O (configuration not stated),T/C,"dose: 6.25 mg/kg/injection, schedule: Q01DX009 (ip), vehicle: saline with Tween-80",112 % of control
same,T/C,"dose: 125.0 mg/kg/injection, schedule: Q01DX009 (ip), vehicle: other",120 % of control
same,T/C,"dose: 125.0 mg/kg/injection, schedule: Q01DX009 (ip), vehicle: saline with Tween-80",100 % of control
same,T/C,"dose: 250.0 mg/kg/injection, schedule: Q01DX009 (ip), vehicle: other",115 % of control
same,T/C,"dose: 500.0 mg/kg/injection, schedule: Q01DX009 (ip), vehicle: other",175 % of control
same,T/C,"dose: 1000.0 mg/kg/injection, schedule: Q01DX009 (ip), vehicle: saline with Tween-80",172 % of control
O=C(c1ccc(-c2ccccc2)cc1)C(Br)C(Br)c1ccccc1 (configuration not stated),T/C,"dose: 25.0 mg/kg/injection, schedule: Q01DX009 (ip), vehicle: other",90 % of control
same,T/C,"dose: 100.0 mg/kg/injection, schedule: Q01DX009 (ip), vehicle: other",90 % of control
same,T/C,"dose: 200.0 mg/kg/injection, schedule: Q01DX009 (ip), vehicle: other",101 % of control
same,T/C,"dose: 400.0 mg/kg/injection, schedule: Q01DX009 (ip), vehicle: other",116 % of control
CCOC(=O)/C=C1/Nc2ccc([N+](=O)[O-])cc2NC1=O (tested in a mixture with another compound),T/C,"dose: 50.0 mg/kg/injection, schedule: Q01DX009 (ip), vehicle: distilled water + Tween-80 + alcohol",86 % of control
same,T/C,"dose: 100.0 mg/kg/injection, schedule: Q01DX009 (ip), vehicle: distilled water + Tween-80 + alcohol",94 % of control
same,T/C,"dose: 200.0 mg/kg/injection, schedule: Q01DX009 (ip), vehicle: distilled water + Tween-80 + alcohol",103 % of control
CCCCCCNC(=O)CNC(=O)C=[N+]=[N-],T/C,[6],101 % of control
same,T/C,[7],101 % of control
same,T/C,[8],97 % of control
Cc1cn(C2CC(O)C(Cn3ccc4ccccc43)O2)c(=O)[nH]c1=O (configuration not stated),T/C,"dose: 1.56 mg/kg/injection, schedule: Q01DX009 (ip), vehicle: Klucel (hydroxypropylcellulose) (HPC)",103 % of control
same,T/C,[2],99 % of control
same,T/C,[3],99 % of control
same,T/C,[4],99 % of control
same,T/C,[5],97 % of control
BC(=O)O,T/C,[11],97 % of control
same,T/C,[12],93 % of control
same,T/C,[13],93 % of control
same,T/C,[14],106 % of control
